Experimental data as given in patent publication US20060223837A1 (priority 2005, published 2006).

Legend:
human VR1 [1] = target: T1, human VR1 (Homo sapiens, UniProt Q8NER1); assay: Human VR1 functional assay (FLIPR intracellular Ca2+); assay type: cell-based; conditions: for inhibition at 10 µM: read-out: h % I (10 μM); for Emax at 12 µM: read-out: % Response Relative to EC80 of Capsaicin (12 μM); for EC50: agonist-induced Ca2+ increase, read-out: h EC50; for IC50: antagonism of capsaicin-induced Ca2+ increase, read-out: h IC50
T1 construct: expressed in transfected cells; host or cells: HEK293
T1 sequence (Q8NER1 whole entry): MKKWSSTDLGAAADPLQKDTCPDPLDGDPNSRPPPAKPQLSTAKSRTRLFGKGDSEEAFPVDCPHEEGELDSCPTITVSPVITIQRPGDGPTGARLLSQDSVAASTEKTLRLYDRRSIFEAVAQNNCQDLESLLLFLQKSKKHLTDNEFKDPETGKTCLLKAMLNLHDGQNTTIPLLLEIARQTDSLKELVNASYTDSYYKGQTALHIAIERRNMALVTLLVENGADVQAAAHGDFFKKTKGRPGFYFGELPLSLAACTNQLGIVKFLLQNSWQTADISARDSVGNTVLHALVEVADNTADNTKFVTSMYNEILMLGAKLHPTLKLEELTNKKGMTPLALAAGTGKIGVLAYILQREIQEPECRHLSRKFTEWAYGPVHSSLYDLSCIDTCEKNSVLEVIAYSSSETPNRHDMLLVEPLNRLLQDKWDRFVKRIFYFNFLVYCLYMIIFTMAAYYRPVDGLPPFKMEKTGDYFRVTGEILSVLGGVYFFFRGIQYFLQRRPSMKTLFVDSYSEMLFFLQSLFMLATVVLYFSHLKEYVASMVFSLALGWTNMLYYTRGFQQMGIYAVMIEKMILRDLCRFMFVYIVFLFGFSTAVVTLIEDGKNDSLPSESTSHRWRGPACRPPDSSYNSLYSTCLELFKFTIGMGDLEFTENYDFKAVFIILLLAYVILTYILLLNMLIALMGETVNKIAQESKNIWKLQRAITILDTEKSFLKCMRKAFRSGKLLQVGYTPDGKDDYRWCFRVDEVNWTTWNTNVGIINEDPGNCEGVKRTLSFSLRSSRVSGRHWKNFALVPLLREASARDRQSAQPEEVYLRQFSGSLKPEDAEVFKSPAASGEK
How it was run: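 HEK293 cells expressing human VR1, loaded with Calcium 3 dye, were exposed to test compounds for 5 min while FLIPR recorded intracellular Ca2+, then challenged with capsaicin at ~80% maximal response ([…]). EC50 or IC50 came from dose-response curves on quadruplicate-well means.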

human VR1 [2] = target: T1, human VR1; assay: Human VR1 [3H]RTX binding assay; conditions: for inhibition at 1 µM / h Binding % I (1 μM): inhibition of [3H]RTX binding at 1 μM; for inhibition at 1 µM: read-out: h Binding % I (1 μM); for Ki: [3H]RTX binding, HEK293 membranes
Method: Compounds of the present invention were tested for their ability to inhibit the binding of tritiated resiniferatoxin ([^3H] RTX) to human VR1 receptors in a [^3H] RTX binding assay, as previously described (Zhang, Sui-Po. Improved ligand binding assays for vanilloid receptors. PCT Int. Appl. (2002), WO 0233411 A1 20020425 AN 2002:315209; Grant, Elfrida R., Dubin, Adrienne E., Zhang, Sui-Po, Zivin, Robert A., Zhong, Zhong Simultaneous intracellular calcium and sodium flux imaging in human VR1-transfected human embryonic kidney cells: a method to resolve ionic dependence of VR1-mediated cell death. J. Pharmacol. Exp. ther., 2002, 300(1), 9-17.) HEK293 cells were transfected with human VR1 and washed with Hank's balanced Salt Solution, dissociated with cell dissociation buffer (Sigma), and then centrifuged at 1000× g for 5 min. Cell pellets were homogenized in cold 20 mM HEPES buffer (pH 7.4), containing 5.8 mM NaCl, 320 mM sucrose, 2 mM MgCl2, 0.75 CaCl2 and 5 mM KCl and centrifuged at 1000× g for 15 min. The resultant supernate was then centrifuged at 40000× g for 15 min. The pelleted membranes were stored in a freezer at −80 C.
Approximately 120 μg protein/ml from membranes were incubated with indicated concentrations of [^3H]RTX in 0.5 ml of the HEPES buffer (pH 7.4) containing 0.25 mg/mL fatty acid-free bovine serum albumin at 37 C for 60 min. After cooling the reaction mixture to 4 C, 0.1 mg (x-acid glycoprotein was added to each sample, which was incubated at 4 C for 15 min and then centrifuged at 18500× g for 15 min. The tip of the microcentrifuge tube containing the pellet was cut off. Bound radioactivity was quantified by scintillation counting. Non-specific binding was assessed in the presence of 200 nM unlabeled resiniferatoxin.
Data were calculated according to the equation: % inhibtion=(total binding−binding)*100/(total binding−non specific binding).
Ki values were calculated based on an average of duplicate measurements using a GraphPad Prism program.

[3] = inhibition of capsaicin response

Compound	inhibition at 1 µM (human VR1 [2]) [%]	Emax at 12 µM (human VR1 [1]; agonist response) [%]	h Binding % I (1 μM) (human VR1 [2]) [%]	Ki (human VR1 [2]) [nM]	other results
COC(=O)c1cccc(-c2ccc(NC(=O)CCc3ccc(C(C)(C)C)cc3)cc2)c1 [Cpd 29, 4′-[3-(4-tert-butyl-phenyl)-propionylamino]-biphenyl-3-carboxylic acid methyl ester]	43				inhibition at 10 µM (human VR1 [1]; [3]): 36%
CC(C)(C)c1ccc(CCC(=O)Nc2ccc(-c3cccc(C(=O)O)c3)cc2)cc1 [Cpd 30, 4′-[3-(4-tert-butyl-phenyl)-propionylamino]-biphenyl-3-carboxylic acid]	2	94			EC50 (human VR1 [1]): 1420 nM
CC(C)(C)c1ccc(CCC(=O)Nc2ccc(-c3cccc(C(N)=O)c3)cc2)cc1 [Cpd 31, 4′-[3-(4-tert-butyl-phenyl)-propionylamino]-biphenyl-3-carboxylic acid amide]	4				inhibition at 10 µM (human VR1 [1]; [3]): 28%
CN(C)C(=O)c1cccc(-c2cccc(NC(=O)CCc3ccc(C(C)(C)C)cc3)c2)c1 [Cpd 34]			17		h % I (10 μM) (human VR1 [1]; [3]): 14%
CC(C)(C)c1ccc(/C=C/C(=O)Nc2ccc(-c3cccc(C(N)=O)c3)cc2)cc1 [Cpd 35, 4′-[3-(4-tert-butyl-phenyl)-acryloylamino]-biphenyl-3-carboxylic acid amide]	30	53			
CN(C)C(=O)c1cccc(-c2ccc(NC(=O)/C=C/c3ccc(C(C)(C)C)cc3)cc2)c1 [Cpd 36]			16		% Response Relative to EC80 of Capsaicin (12 μM) (human VR1 [1]; agonist response): 55%
CC(C)(C)c1ccc(CCC(=O)Nc2cccc(-c3cccc(C(N)=O)c3)c2)cc1 [Cpd 37]			21		h % I (10 μM) (human VR1 [1]; [3]): 16%
CN(C)C(=O)c1cccc(-c2cccc(NC(=O)CCc3ccc(C(C)(C)C)cc3)c2)c1 [Cpd 38]			1		h % I (10 μM) (human VR1 [1]; [3]): 17%
CN(C)C(=O)c1cccc(-c2ccc(NC(=O)CCc3ccc(C(C)(C)C)cc3)cc2)c1 [Cpd 39]			5		h % I (10 μM) (human VR1 [1]; [3]): 24%
CC(C)(C)c1ccc(CCC(=O)Nc2ccc(-c3cccc(NS(C)(=O)=O)c3)cc2)cc1 [Cpd 40]			41		% Response Relative to EC80 of Capsaicin (12 μM) (human VR1 [1]; agonist response): 74%
CC(C)(C)OC(=O)Nc1cccc(-c2ccc(NC(=O)CCc3ccc(C(C)(C)C)cc3)cc2)c1 [Cpd 41]	78.8	43		109	inhibition at 10 µM (human VR1 [1]; [3]): 30%
CC(C)(C)OC(=O)NCc1cccc(-c2ccc(NC(=O)CCc3ccc(C(C)(C)C)cc3)cc2)c1 [Cpd 42]			1.1		h % I (10 μM) (human VR1 [1]; [3]): 9%
CC(C)(C)c1ccc(CCC(=O)Nc2ccc(-c3cccc(CN)c3)cc2)cc1 [Cpd 43]	23	104			EC50 (human VR1 [1]): 1660 nM
CC(C)(C)c1ccc(CCC(=O)Nc2ccc(-c3cccc(NC(N)=O)c3)cc2)cc1 [Cpd 44]	97	102		52	EC50 (human VR1 [1]): 289 nM
CC(C)(C)c1ccc(CCC(=O)Nc2ccc(-c3cccc(OCCN)c3)cc2)cc1 [Cpd 45]	16	84			EC50 (human VR1 [1]): 2400 nM
CC(C)(C)c1ccc(CCC(=O)Nc2ccc(-c3cccc(NCCO)c3)cc2)cc1 [Cpd 46]	34				IC50 (human VR1 [1]): 4770 nM; inhibition at 10 µM (human VR1 [1]; [3]): 53%
NC(=O)c1cccc(-c2ccc(NC(=O)CCc3ccc(C(F)(F)F)cc3)cc2)c1 [Cpd 48]			2.1		% Response Relative to EC80 of Capsaicin (12 μM) (human VR1 [1]; agonist response): 57%
CC(=O)Nc1cccc(-c2ccc(NC(=O)CCc3ccc(C(C)(C)C)cc3)cc2C)c1 [Cpd 55]	66	69		184	
CC(=O)Nc1cccc(-c2ccc(NC(=O)CCc3ccc(C(C)(C)C)cc3)cc2F)c1 [Cpd 57]	66	84		266	
Cc1cc(-c2cccc(O)c2)ccc1NC(=O)CCc1ccc(C(C)(C)C)cc1 [Cpd 58]			43		% Response Relative to EC80 of Capsaicin (6 μM) (human VR1 [1]; agonist response, 6 μM): 19%
Cc1cc(NC(=O)CCc2ccc(C(C)(C)C)cc2)ccc1-c1cccc(O)c1 [Cpd 59, 3-(4-tert-butyl-phenyl)-N-(3′-hydroxy-2-methyl-biphenyl-4-yl)-propionamide]	103			10.7	IC50 (human VR1 [1]): 490 nM; inhibition at 10 µM (human VR1 [1]; [3]): 101%
CC(C)(C)c1ccc(CCC(=O)Nc2ccc(-c3cccc(O)c3)cc2F)cc1 [Cpd 60]	52	84		541	

Compound	inhibition at 1 µM (human VR1 [2]) [%]	Emax at 12 µM (human VR1 [1]; agonist response) [%]	h Binding % I (1 μM) (human VR1 [2]) [%]	Ki (human VR1 [2]) [nM]	other results
CC(C)(C)c1ccc(CCC(=O)Nc2ccc(-c3cccc(O)c3)c(F)c2)cc1 [Cpd 61]	96	68		53.3	
CC(C)(C)c1ccc(CCC(=O)Nc2ccc(-c3cccc(O)c3)cc2)cc1 [Cpd 62]			23		h % I (5 μM) (human VR1 [1]; [3]): 16%
CC(C)(C)c1ccc(CCC(=O)Nc2ccc(-c3cccc(O)c3)cc2)s1 [Cpd 65, 3-(5-tert-butyl-thiophen-2-yl)-N-(3′-hydroxy-biphenyl-4-yl)-propionamide]	77	87		168	
CC(C)(C)c1ccc(CCC(=O)Nc2ccc(-c3cccc(C(N)=O)c3)cc2CO)cc1 [Cpd 69]			1		h % I (10 μM) (human VR1 [1]; [3]): 6%
CC(=O)Nc1cccc(-c2ccc(NC(=O)CCc3ccc(C(C)(C)C)cc3)c(CO)c2)c1 [Cpd 70]			1		h % I (10 μM) (human VR1 [1]; [3]): 7%
CC(C)(C)c1ccc(CCC(=O)Nc2ccc(-c3cccc(O)c3)cc2CO)cc1 [Cpd 71]			1		h % I (10 μM) (human VR1 [1]; [3]): 5%
CC(C)(C)c1ccc(CCC(=O)Nc2ccc(-c3cccc(C(N)=O)c3)c(C(=O)O)c2)cc1 [Cpd 72]			1		h % I (10 μM) (human VR1 [1]; [3]): 11%
CC(=O)Nc1cccc(-c2ccc(NC(=O)CCc3ccc(C(C)(C)C)cc3)cc2C(=O)O)c1 [Cpd 73]			1		h % I (10 μM) (human VR1 [1]; [3]): 20%
CC(C)(C)c1ccc(CCC(=O)Nc2ccc(-c3cccc(O)c3)c(C(=O)O)c2)cc1 [Cpd 74]			1		h % I (10 μM) (human VR1 [1]; [3]): 8%
CC(=O)Nc1cccc(-c2ccc(NC(=O)CCc3ccc(C(F)(F)F)cc3)cc2)c1 [Cpd 75]			6		% Response Relative to EC80 of Capsaicin (12 μM) (human VR1 [1]; agonist response): 82%
O=C(CCc1ccc(C(F)(F)F)cc1)Nc1ccc(-c2ccccc2O)cc1 [Cpd 76]	50	77		421	
O=C(CCc1ccc(C(F)(F)F)cc1)Nc1ccc(-c2cccc(O)c2)cc1 [Cpd 77]	72	88		134	
O=C(CCc1ccc(C(F)(F)F)cc1)Nc1ccc(-c2ccc(O)cc2)cc1 [Cpd 78]	56	70		289	
O=C(CCc1ccc(C(F)(F)F)cc1)Nc1ccc(-c2cccc(CO)c2)cc1 [Cpd 79]			19		% Response Relative to EC80 of Capsaicin (12 μM) (human VR1 [1]; agonist response): 74%
O=C(CCc1ccc(C(F)(F)F)cc1)Nc1ccc(-c2ccc(CO)cc2)cc1 [Cpd 80]	62	77		269	
CC(=O)Nc1cccc(-c2ccc(NC(=O)CCc3ccc(C(C)(C)C)cc3)c3ccccc23)c1 [Cpd 81]			6		h % I (5 μM) (human VR1 [1]; [3]): 11%
CC(C)(C)c1ccc(CCC(=O)Nc2ccc(-c3cccc(O)c3)c3ccccc23)cc1 [Cpd 82]			28		h % I (5 μM) (human VR1 [1]; [3]): 39%
NC(=O)c1cccc(-c2ccc(NC(=O)CCc3ccc(C(F)(F)F)cc3)c3ccccc23)c1 [Cpd 83]			1		h % I (5 μM) (human VR1 [1]; [3]): 31%
CC(=O)Nc1cccc(-c2ccc(NC(=O)CCc3ccc(C(F)(F)F)cc3)c3ccccc23)c1 [Cpd 84]			1		h % I (5 μM) (human VR1 [1]; [3]): 43%
O=C(CCc1ccc(C(F)(F)F)cc1)Nc1ccc(-c2cccc(O)c2)c2ccccc12 [Cpd 85]			1		h % I (5 μM) (human VR1 [1]; [3]): 21%
CC(C)(C)c1ccc(CCC(=O)Nc2ccc(-c3ccccc3O)c(CO)c2)cc1 [Cpd 92]				89	Emax at 6 µM (human VR1 [1]; agonist response, 6 μM, read-out: % Response Relative to EC80 of Capsaicin (6 μM)): 133%; EC50 (human VR1 [1]): 111 nM; inhibition at 1 µM (human VR1 [1]; inhibition of capsaicin response, 1 μM, read-out: h % I (1 μM)): 84%
